# Results reported in patent publication US20220249441A1, “Homodimeric Tobramycin Adjuvant Repurposes Novobiocin as an Effective Antibacterial Agent Against Gram-Negative Bacteria” (priority 2019, published 2022).
# Experiments:
# E. coli = experiment: Checkerboard assay (antibiotic + adjuvant combination MIC); format: cell-based, Escherichia coli; details: for MIC of Novobiocin +Compound 1: 1 at ≤7.1 μM; for MIC of Novobiocin + adjuvant (7.1 μM): PMBN or 1 at 7.1 μM; for Fold Potentiation: novobiocin + 1 at ≤7.1 μM
# Experimental: (§1) Antimicrobial Susceptibility Assay. The in vitro antimicrobial activity of all compounds/antibiotics against a panel of bacteria was evaluated by microbroth dilution method in accordance with the Clinical and Laboratory Standards Institute (CLSI) guidelines (using ATCC strains as quality control strains) (54). Overnight grown bacterial cultures were diluted in saline to achieve a 0.5 McFarland turbidity, followed by 1:50 dilution in Mueller-Hinton broth (MHB) for inoculation to a final concentration of approximately 5×10^5 CFU/mL. […] The lowest concentration that prevented the visible growth of bacteria was defined as the MIC for each antimicrobial agent. The broth with or without bacterial cells was used as positive or negative control, respectively.
# (§2) Checkerboard Assay. Combination studies with different antibiotics were performed in 96-well plates as previously described (19). Briefly, the antibiotic of interest was serially diluted in MHB along the abscissa while the adjuvant (tobramycin homodimer) was serially diluted in MHB along the ordinate. This creates a 10×7 matrices wherein each well consists of a combination of different antibiotic and adjuvant concentrations. Overnight grown bacterial cultures were diluted in saline to achieve a 0.5 McFarland turbidity, followed by 1:50 dilution in Mueller-Hinton broth (MHB) for inoculation to a final concentration of approximately 5×10^5 CFU/mL. […] MIC was recorded as wells with the lowest concentration of drugs with no bacterial growth. The fractional inhibitory concentration (FIC) for each antibiotic was calculated by dividing the MIC of the antibiotic in the presence of adjuvant by the MIC of the antibiotic alone. Similarly, the FIC of adjuvant was calculated by dividing the MIC of the adjuvant in the presence of antibiotic by the MIC of the adjuvant alone. FIC index is the sum of both FICs. FIC indices of ≤0.5 were deemed synergistic; >0.5-4, no interaction; and >4, antagonistic.
# K. pneumoniae = experiment: as above; format: cell-based, Klebsiella pneumoniae; details: for MIC of Novobiocin +Compound 1: 1 at ≤7.1 μM; for Fold Potentiation: novobiocin + 1 at ≤7.1 μM
# Experimental: as §1, §2
# A. baumannii = experiment: as above; format: cell-based, Acinetobacter baumannii; details: for MIC of Novobiocin +Compound 1: 1 at ≤7.1 μM; for Fold Potentiation: novobiocin + 1 at ≤7.1 μM
# Experimental: as §1, §2
# E. cloacae = experiment: as above; format: cell-based, Enterobacter cloacae; details: for MIC of Novobiocin +Compound 1: 1 at ≤7.1 μM; for Fold Potentiation: novobiocin + 1 at ≤7.1 μM
# Experimental: as §1, §2
# E. faecium ATCC 27270 = experiment: MIC and combination against Gram-positive bacteria; format: cell-based
# Experimental: (§3) Next, we investigated whether tobramycin by itself would potentiate novobiocin against Gram-negative bacteria.
# as §1
# MRSA ATCC 33592 = experiment: MIC and combination against Gram-positive bacteria; format: cell-based; details: MRSA ATCC 33592
# Experimental: as §3, §1
# MRSE 61589 = experiment: MIC and combination against Gram-positive bacteria; format: cell-based
# Experimental: as §3, §1
# P. aeruginosa = experiment: Checkerboard assay (antibiotic + adjuvant combination MIC); format: cell-based, Pseudomonas aeruginosa; details: for MIC of Novobiocin +Compound 1: 1 at ≤7.1 μM; for MIC of Novobiocin + adjuvant (7.1 μM): PMBN or 1 at 7.1 μM
# MDR A. baumannii = experiment: Galleria mellonella in vivo larvae-infection model; details: single dose 100 mg/kg, agent alone; after 24 h
# Experimental: Galleria mellonella In vivo Larvae-Infection Model. In vivo synergistic effects were determined using Galleria mellonella infection model, as previously described (49). Briefly, larvae were purchased from The Worm Lady Live Feeder (ON, Canada), stored in their natural habitat at 16° C., and used within 10 days of delivery. The larvae (average weight of 250 mg) were used for tolerability and efficacy studies. Tolerability study was performed by injecting a 10 μL aliquot of antimicrobial agents only at concentrations equivalent to 100 mg/kg or 200 mg/kg. The larvae (ten in each group) were incubated at 37° C. and monitored for 96 h. For efficacy studies, the virulence and bacterial load required to kill 100% of the larvae within 24 h (with no treatment) was first determined, which is approximately 10 CFU. Overnight grown culture of respective MDR A. baumannii isolate was standardized to 0.5 McFarland standard and diluted in PBS to a final concentration of 10^3 CFU/mL. A 10 μL aliquot of this solution (˜10 CFU) was injected into each larva and incubated for 3 h at 37° C. […] Larvae treated with 10 μL of PBS or high concentrations of test antibiotics served as negative and positive control, respectively. The larvae were incubated at 37° C. in Petri dishes lined with filter paper and scored for survivability every 6 h for up to 36 h. […]
# A. baumannii ATCC 17978 = experiment: microbe, parasite or virus in culture; format: cell-based, Acinetobacter baumannii; details: seven serial passages
# Experimental: Development of Resistance Study. […] Tobramycin and colistin were included as controls. At 24-hour intervals, the cultures were assessed for growth. […] This serial passaging was repeated for 8 days.
structure (smiles),measurement,setting,value
"NC[C@H]1O[C@H](O[C@H]2[C@H](OCCCCc3cn(CCCCO[C@@H]4[C@@H](O[C@H]5O[C@H](CO)[C@@H](O)[C@H](N)[C@H]5O)[C@H](N)C[C@H](N)[C@H]4O[C@H]4O[C@H](CN)[C@@H](O)C[C@H]4N)nn3)[C@@H](O[C@H]3O[C@H](CO)[C@@H](O)[C@H](N)[C@H]3O)[C@H](N)C[C@@H]2N)[C@H](N)C[C@@H]1O.O=C(O)C(F)(F)F.O=C(O)C(F)(F)F.O=C(O)C(F)(F)F.O=C(O)C(F)(F)F.O=C(O)C(F)(F)F.O=C(O)C(F)(F)F.O=C(O)C(F)(F)F.O=C(O)C(F)(F)F.O=C(O)C(F)(F)F.O=C(O)C(F)(F)F [Compound 1, Tobramycin Homodimer 1]",MIC of Novobiocin +Compound 1,E. coli; E. coli 94393,2 µg/mL
same,MIC of Novobiocin + adjuvant (7.1 μM),E. coli; E. coli 94393,2 µg/mL
same,Fold Potentiation,E. coli; E. coli 94393,64 fold
same,MIC of Novobiocin +Compound 1,E. coli; E. coli 94474,16 µg/mL
same,MIC of Novobiocin + adjuvant (7.1 μM),E. coli; E. coli 94474,16 µg/mL
same,Fold Potentiation,E. coli; E. coli 94474,16 fold
same,MIC of Novobiocin +Compound 1,E. coli; E. coli 107115,8 µg/mL
same,Fold Potentiation,E. coli; E. coli 107115,16 fold
same,MIC of Novobiocin +Compound 1,E. coli; E. coli ATCC 25922,2 µg/mL
same,Fold Potentiation,E. coli; E. coli ATCC 25922,32 fold
same,MIC of Novobiocin +Compound 1,K. pneumoniae; K. pneumoniae 113250,16 µg/mL
same,Fold Potentiation,K. pneumoniae; K. pneumoniae 113250,32 fold
same,MIC of Novobiocin +Compound 1,K. pneumoniae; K. pneumoniae 113254,16 µg/mL
same,Fold Potentiation,K. pneumoniae; K. pneumoniae 113254,16 fold
same,MIC of Novobiocin +Compound 1,K. pneumoniae; K. pneumoniae 116381,8 µg/mL
same,Fold Potentiation,K. pneumoniae; K. pneumoniae 116381,128 fold
same,MIC of Novobiocin + adjuvant (7.1 μM),"K. pneumoniae; KP 113254, PMBN or 1 at 7.1 μM",16 µg/mL
same,MIC of Novobiocin +Compound 1,A. baumannii; A. baumannii 027,0.5 µg/mL
same,Fold Potentiation,A. baumannii; A. baumannii 027,16 fold
same,MIC of Novobiocin +Compound 1,A. baumannii; A. baumannii 031,0.5 µg/mL
same,Fold Potentiation,A. baumannii; A. baumannii 031,16 fold
same,MIC of Novobiocin +Compound 1,A. baumannii; A. baumannii 92247,0.25 µg/mL
same,Fold Potentiation,A. baumannii; A. baumannii 92247,16 fold
same,MIC of Novobiocin +Compound 1,A. baumannii; A. baumannii 110193,1 µg/mL
same,Fold Potentiation,A. baumannii; A. baumannii 110193,256 fold
same,MIC of Novobiocin +Compound 1,A. baumannii; A. baumannii ATCC 17978,0.5 µg/mL
same,Fold Potentiation,A. baumannii; A. baumannii ATCC 17978,32 fold
same,MIC of Novobiocin +Compound 1,A. baumannii; A. baumannii LAC-4,0.5 µg/mL
same,Fold Potentiation,A. baumannii; A. baumannii LAC-4,16 fold
same,MIC of Novobiocin + adjuvant (7.1 μM),"A. baumannii; AB 92247, PMBN or 1 at 7.1 μM",0.25 µg/mL
same,potentiation of novobiocin,A. baumannii; colistin-resistant mutant B of A. baumannii ATCC 17978,did not potentiate
same,fold potentiation of novobiocin,A. baumannii; novobiocin-resistant mutant A of A. baumannii ATCC 17978,16 fold
same,MIC of novobiocin in the presence of compound 1,"A. baumannii; wild-type and MDR A. baumannii clinical isolates, ≤7.1 μM of compound 1",≤ 1 µg/mL
same,MIC of Novobiocin +Compound 1,E. cloacae; E. cloacae 117029,8 µg/mL
same,Fold Potentiation,E. cloacae; E. cloacae 117029,128 fold
same,MIC of Novobiocin +Compound 1,E. cloacae; E. cloacae 118568,32 µg/mL
same,Fold Potentiation,E. cloacae; E. cloacae 118568,32 fold
same,MIC of Novobiocin +Compound 1,E. cloacae; E. cloacae 121187,8 µg/mL
same,Fold Potentiation,E. cloacae; E. cloacae 121187,8 fold
same,MIC of Novobiocin + adjuvant (7.1 μM),"E. cloacae; EC 118568, PMBN or 1 at 7.1 μM",32 µg/mL
same,effect of addition of compound 1 on activity of novobiocin,E. faecium ATCC 27270,did not improve
same,effect of addition of compound 1 on activity of novobiocin,MRSA ATCC 33592,did not improve
same,effect of addition of compound 1 on activity of novobiocin,MRSE 61589,did not improve
same,MIC of Novobiocin +Compound 1,P. aeruginosa; P. aeruginosa 259-96918,8 µg/mL
same,MIC of Novobiocin +Compound 1,P. aeruginosa; P. aeruginosa 260-97103,1 µg/mL
same,MIC of Novobiocin +Compound 1,P. aeruginosa; P. aeruginosa 262-101856,8 µg/mL
same,MIC of Novobiocin +Compound 1,P. aeruginosa; P. aeruginosa 264-104354,8 µg/mL
same,MIC of Novobiocin +Compound 1,P. aeruginosa; P. aeruginosa 91433,1 µg/mL
same,MIC of Novobiocin +Compound 1,P. aeruginosa; P. aeruginosa 100036,8 µg/mL
same,MIC of Novobiocin +Compound 1,P. aeruginosa; P. aeruginosa 101243,1 µg/mL
same,MIC of Novobiocin +Compound 1,P. aeruginosa; P. aeruginosa 101885,8 µg/mL
same,MIC of Novobiocin +Compound 1,P. aeruginosa; P. aeruginosa 114228,16 µg/mL
same,MIC of Novobiocin +Compound 1,P. aeruginosa; P. aeruginosa PAO1,4 µg/mL
same,MIC of Novobiocin + adjuvant (7.1 μM),P. aeruginosa; PA 91433,1 µg/mL
same,MIC of Novobiocin + adjuvant (7.1 μM),P. aeruginosa; PA 101243,1 µg/mL
same,MIC of Novobiocin + adjuvant (7.1 μM),P. aeruginosa; PA 114228,16 µg/mL
same,MIC of Novobiocin +7.1 μM Compound 1,P. aeruginosa; PAO1 (wild-type),4 µg/mL
same,MIC of Novobiocin + adjuvant (7.1 μM),P. aeruginosa; PAO1,4 µg/mL
same,MIC of Novobiocin +7.1 μM Compound 1,P. aeruginosa; PAO200 (efflux-deficient),0.125 µg/mL
same,MIC of Novobiocin +7.1 μM Compound 1,P. aeruginosa; PAO750 (efflux-deficient),0.125 µg/mL
same,mortality of infected larvae,MDR A. baumannii,100%
same,resistance phenotype after exposure to sub-MIC levels,A. baumannii ATCC 17978,did not generate tobramycin-resistant phenotype
